US7560227B2, “Biomarkers of vulnerable atherosclerotic plaques and methods of use” (University of Massachusetts, priority 2005, dated 2009)
Where a SMILES comes first, the peptide text is derived from it. Bridges are numbered along the chain shown (N, C = ends). Where no end group is shown, it is not given here.

Legend:
[1] = molecular target: T1, myeloperoxidase (Homo sapiens, UniProt P05164); test: Histological staining of bone marrow tissue slides with biotinylated peptides; details: biotinylated peptide, anti-biotin antibody, ABC alkaline phosphatase kit, hematoxylin counterstain
T1 construct: Slides of bone marrow tissue were used since they are known to contain myeloperoxidase; from tissue; host or cells: bone marrow tissue slides
T1 sequence (P05164 49-745): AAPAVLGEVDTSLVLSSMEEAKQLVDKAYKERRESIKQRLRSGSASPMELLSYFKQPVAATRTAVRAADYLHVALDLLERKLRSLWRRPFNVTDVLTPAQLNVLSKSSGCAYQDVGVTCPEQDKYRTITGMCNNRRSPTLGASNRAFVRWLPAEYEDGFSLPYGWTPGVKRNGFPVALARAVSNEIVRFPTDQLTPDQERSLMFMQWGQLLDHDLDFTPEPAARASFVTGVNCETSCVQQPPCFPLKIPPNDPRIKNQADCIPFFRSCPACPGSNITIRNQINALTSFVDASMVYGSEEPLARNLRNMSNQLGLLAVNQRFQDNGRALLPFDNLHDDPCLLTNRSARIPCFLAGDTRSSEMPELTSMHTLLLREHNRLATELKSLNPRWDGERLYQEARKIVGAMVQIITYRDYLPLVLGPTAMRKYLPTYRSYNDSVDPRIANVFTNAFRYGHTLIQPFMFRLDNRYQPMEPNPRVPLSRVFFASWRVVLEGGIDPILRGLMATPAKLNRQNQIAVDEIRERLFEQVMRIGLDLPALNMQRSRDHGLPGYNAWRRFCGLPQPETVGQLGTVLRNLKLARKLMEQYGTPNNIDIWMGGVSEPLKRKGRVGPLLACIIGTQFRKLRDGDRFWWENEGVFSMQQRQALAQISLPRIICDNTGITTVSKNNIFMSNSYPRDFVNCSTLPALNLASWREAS
Protocol: FIGS. 9A-9D show the results of histological studies. Slides of bone marrow tissue were used since they are known to contain myeloperoxidase. Treatments were as follows: Figure 9A, anti-myeloperoxidase antibody followed with biotinylated secondary antibody; FIG. 9B, biotinylated twenty-three mer MPO-17 peptide; FIG. 9C, biotinylated twenty-three mer control peptide; FIG. 9D, incubated with both the biotinylated twenty-three mer MPO-17 peptide and the biotinylated twenty-three mer control peptide, without primary antibody. Each slide was treated with an anti-biotin antibody and the ABC alkaline phosphatase kit (Vector labs) and counterstained with hematoxylin.
The binding of identified peptides to components of plaques was confirmed histologically as follows. Peptide sequences found in multiple selected clones were used to produce peptides using synthetic techniques. Peptides may also be produced using recombinant DNA techniques. The peptides are conjugated with a detectable label, such as biotin using known protocols. The biotin-labeled peptides are used to confirm the binding specificity determined in Example 1 and Example 2 by immunohistochemical analyses of tissue such as vulnerable plaques or tissues rich in components vulnerable plaques that have been exposed to biotin-labeled peptides.
FIGS. 9A-9D show the results of such histological studies. […]

[2] = molecular target: T2, myeloperoxidase (Homo sapiens, UniProt P05164); test: SE-HPLC (Superose-12) evaluation of twenty-three mer peptide binding to myeloperoxidase; details: for Shift to a retention time associated with myeloperoxidase: SE-HPLC, Superose-12 column, over incubation time
Protocol: FIGS. 7A and 7B are graphical representations of the results an evaluation of twenty- three mer peptide binding by SE-HPLC using a Superose-12 column. […] For example, the UV peak for the enzyme increased from 16% of total protein at […] of incubation to 46% of total protein after 2 h incubation.
FIGS. 7A and 7B are graphical representations of the results of an evaluation of MPO-17 twenty-three mer polypeptide binding by SE-HPLC using a Superose-12 column. […] For example, the UV peak for the enzyme increased from 16% of total protein at 5 min of incubation to 46% of total protein after 2 hours incubation.

[3] = molecular target: T2, myeloperoxidase; test: Binding of 99mTc-labeled phage clones to 125I-myeloperoxidase, separated on spin column / Sepharose 6B column; details: for Relative Binding (% bound): 99mTc-phage (10^10 pfu) with 125I-myeloperoxidase (750 ng), 15-30 minutes at 4 degrees Celsius, after subtraction of binding by control phage MPO-4; for Binding to 125I-myeloperoxidase compared with control clone MPO-4 (in words): shift of 125I to higher molecular weight fractions associated with 99mTc-phage
Protocol: FIG. 6 is a graphical representation of the results of studies of the binding of several phage clones to ^125-myeloperoxidase where the relative magnitude of binding was MPO-17>MPO-6>MPO-15 >MPO-1 >control (MPO-4). The consensus phage clones were radiolabeled with ^99mTc, using mercaptoacetyltriglycine (MAG3) as chelator, and the myeloperoxidase was iodinated using iodogen. The ^99mTc-phage were incubated with the ^125I-myeloperoxidase for 15-30 minutes, and then separated on a Sepharose 6B column. The shift of ^125I to the higher molecular weight fractions associated with ^99mTc-phage indicated binding.
After three rounds of selection, twenty phage clones were sequenced and four peptides occurring in more than one clone were identified. The phage clones representing the four sequences occurring in more than one clone plus a clone having a sequence that occurred in no other selected clone were amplified, titered and conjugated with NHS-MAG3 for radiolabeling with ^99mTc. See Winnard, P. Jr, et al., Preparation and use of NHS-MAG3 for technetium-99m labeling of DNA, Nucl. Med. Biol. 1997 July; 24(5):425-32. Myeloperoxidase was radiolabeled with ^125I via iodogen and a fixed amount (750 ng) was incubated with a constant number of phage plaque forming units (10^10) of each of the four consensus clones, plus a non-consensus clone as control, each radiolabeled with ^99mTc. Myeloperoxidase was added at what was estimated to be a 10-fold molar excess over peptide. After incubating for 15-30 minutes at 4 degrees Celsius, the binding of myeloperoxidase to each phage clone was determined by separating phage from myeloperoxidase using both a MicroSpin S-200 HR spin column and a Sepharose 6B open mini-column. The ^99mTc counts were used to identify the phage-containing fractions while the 125I counts in those fractions identified the concentration of bound myeloperoxidase. The peptide sequences of the 16 mer cysteine-constrained peptides in the display domain of the PVIII coat protein and the relative binding of four clones (MPO-1, MPO-6, MPO-15 and MPO-17) are listed in Table 2, below.
FIG. 8 is a graphical representation of the results of studies of the binding of several bacteriophage clones to ^125I-myeloperoxidase where the relative magnitude of binding was MPO-17>MPO-6>MPO-15>MPO-1>control (MPO-4). The consensus phage clones were radiolabeled with ^99mTc, using MAG3 as chelator, and the myeloperoxidase was iodinated using iodogen. The ^99mTc-phage were incubated with the ^125I-myeloperoxidase for 15-30 minutes, and then separated on a Sepharose 6B column. The shift of ^125I to the higher molecular weight fractions associated with ^99mTc-phage indicated binding.

[4] = system: LS-174T colon cancer cells; test: Binding of 99mTc-labeled phage to LS-174T colon cancer cells in vitro; type: cell-based; details: for Relative Binding: Table 6, relative to control phage A3-12; for Binding compared to the control phage (A3-12): 6×10^5 cells per 50 μl, ~1.5×10^11 virions 99mTc-labeled phage
Protocol: For in vitro studies, LS-174T colon cancer cells, known to express the TAG-72 protein were incubated at a fixed ratio of cells (6×10^5 per 50 μl) to ^99mTc-labeled phage, ˜1.5×10^11 virions.

[5] = system: LS-174T tumor cubes; test: Binding of 99mTc-labeled phage to LS-174T solid tumor cubes; details: ~1 mm tumor cubes incubated with serial dilutions of 99mTc-labeled phage
Protocol: Since TAG-72 expression is known to be higher in solid tumors than cells from culture, LS-174T cells were grown in nude mice, the resulting tumors removed and cut into ˜1 mm cubes for an assay using solid tumors. In addition to the labeled phage, the ^99mTc-labeled antibody was used to evaluate the level of antigen expression in tumor. For assay the tumor cubes were incubated with serial dilutions of ^99mTc-labeled phage or the ^99mTc-B72.3 antibody.

[6] = system: TAG-72; test: Competition of unlabeled phage with 99mTc-labeled B72.3 antibody on LS-174T tumor cubes; type: binding; details: 1 ng 99mTc-labeled B72.3 antibody, serial dilutions of unlabeled phage
Protocol: To test if phage A3-10 could compete with the B72.3, the LS-174T tumor cubes were incubated with 1 ng of ^99mTc-labeled B72.3 antibody and serial dilutions of unlabeled A3-10 phage. […] Thus, the phage is likely blocking the antibody, an indication of binding to the same target.

| Compound | Relative Binding (% bound) [3] [%] | Binding to 125I-myeloperoxidase compared with control clone MPO-4 (in words) [3] | Relative Binding [4] | further results |
| --- | --- | --- | --- | --- |
| CC(C)C[C@H](NC(=O)[C@@H]1CSSC[C@H](NC(=O)[C@H](CCC(N)=O)NC(=O)CNC(=O)[C@H](CO)NC(=O)[C@@H](N)CCCNC(=N)N)C(=O)N[C@@H](Cc2c[nH]cn2)C(=O)N[C@@H](CC(=O)O)C(=O)N[C@@H](CC(=O)O)C(=O)N[C@@H]([C@@H](C)O)C(=O)N[C@@H](Cc2c[nH]c3ccccc23)C(=O)N[C@@H](CC(N)=O)C(=O)N1)C(=O)N[C@@H](C)C(=O)N[C@@H](CS)C(=O)N[C@H](C(=O)NCC(=O)NCC(=O)N[C@@H](CO)C(=O)NCC(=O)NCC(=O)NCC(=O)N[C@@H](CS)C(=O)O)C(C)C [MPO-17 twenty-three mer peptide] (H-RSGQCHDDTWNCLACVGGSGGGC-OH; disulfide 5-12 (inferred); N-terminus and C-terminus assumed) | – | – | – | Staining pattern [1]: staining pattern similar to that seen with the anti-myeloperoxidase antibody; Shift to a retention time associated with myeloperoxidase [2]: gradual shift; UV peak for the enzyme ([2]; after 2 hours incubation of peptide with myeloperoxidase): 46 % of total protein; UV peak for the enzyme ([2]; at 5 min of incubation of peptide with myeloperoxidase): 16 % of total protein |
| AMPVCSLDRKACTAYQ [MPO-1] | 3.9 | binding above the binding of the control clone MPO-4 | – | – |
| HVLGCSYATNSCAHNA (displayed on f88-4 phage pVIII; Chemically synthesized, clone MPO-5) [MPO-6, f88-4/Cys6 phage clone displaying this 16 mer cysteine-constrained peptide in the pVIII coat protein] | 5.8 | binding above the binding of the control clone MPO-4 | – | – |
| LKNYCRKCSNRCTPTG [A3-21] | – | – | 1 | – |
| MNYYCHQTTKTCRTHS [A3-12] | – | – | 1 | Phage bound with phage added [5]: no change in phage bound except at the highest concentration |
| NLIWCRKEFARCTSDM [A3-19] | – | – | 1.5 | Binding compared to the control phage (A3-12) [4]: about 1.5 fold |
| NPGTCKDKWIECLLNG [A3-10] | – | – | 4.3 | Phage bound with phage added [5]: linear increase in phage bound with phage added; Activity associated with the binding of 99mTc-B72.3 antibody [6]: decreased with an increase in unlabeled phage added; Binding compared to the control phage (A3-12) [4]: 4,3 fold |
| QMKQCWVNTATCWGLSGGSGGGC (cysteine pairing not given here; also: biotinylated) [biotinylated for histology] | – | – | – | Staining pattern ([1]; listed as control peptide): Only the bkie hematoxylin stain is observed; Shift to a retention time associated with myeloperoxidase [2]: no shift |
| RSGQCHDDTWNCLACV (displayed on f88-4 phage pVIII; Chemically synthesized, clone MPO-17) [f88-4/Cys6 phage clone displaying this 16 mer cysteine-constrained peptide in the pVIII coat protein] | 8 | highest binding | – | – |
| TVMLCNPMEQGCRWMC (displayed on f88-4 phage pVIII; Chemically synthesized, clone MPO-15) [f88-4/Cys6 phage clone displaying this 16 mer cysteine-constrained peptide in the pVIII coat protein] | 4.5 | binding above the binding of the control clone MPO-4 | – | Relative Binding (% bound) ([3]; listed as MPO-5): 4.5% |
